Series [1] can be described thus: Phase II sulfonation stability in human liver S9 fraction (+PAPS). In kind it is in vitro ADME. The note with it: pH 7.4, human liver S9, 1 μM, read-out: in vitro t1/2, sulfonation. As to the method: (§1) Phase II sulfonation assays were carried out in the presence of HLS9 or MLS9 fractions, as previously reported. The co-factor PAPS was incubated together with MgCl2, DTT, and UniPR compounds. The detailed experimental protocols for in vitro phase I and II metabolic stability assays are reported in Sections S.1–S.3 of the Supplementary Material. […] A 100 µL aliquot of the reaction mixture was extracted at the beginning of the experiment (t = 0) and at t = 180 min and processed as for the metabolic stability samples.
In vitro half-life (t1/2) in MLM and MLS9 fraction was calculated from the slope (k, Equation (1)) of the linear regression model obtained by fitting the log percentage UniPR compound remaining vs. time. in vitro t1/2 = −0.693/k (1) […]
S.1 In vitro phase I liver metabolism in MLM […]
(§2) Within-run accuracy and precision were checked employing QC samples representative of the whole calibration range (HQC = 800 nmol/l; MQC = 400 nmol/l; LQC = 5 nmol/l) with n = 3 replicates at each QC concentration level. […] The acceptance criteria for accuracy were to get back-calculated concentrations ± 15% of the nominal ones, except for the LLOQ, which had to be ± 20%. The acceptance criteria for precision, expressed as relative standard

For series [2] the following is noted: 24 h incubation at 37 °C; cited from earlier work.
The conditions of series [3]: mice, cited from earlier work.
The conditions of series [4]: cited from earlier work.
A short description of series [5]: Phase I metabolic stability in mouse liver microsomes (MLM) with NADPH-generating system. In kind it is in vitro ADME. The following applies: for in vitro half-life (t1/2), phase I metabolism / half-life at 1 µM: NADPH-generating system; for half-life at 1 µM: pH 7.4, MLM, read-out: in vitro half-life (t1/2), phase I metabolism. On the technique in general: Liver microsomes are vesicles of endoplasmic reticulum, rich in cytochrome P450 enzymes.

For series [6] the following is noted: n-octanol/buffer pH 7.4, cited from earlier work.
Series [7] can be described thus: Phase II glucuronidation stability in MLM (+UDPGA). In kind it is in vitro ADME, mouse. The following applies: 1 μM. As to the method:
Phase I metabolic stability assays on UniPR compounds were carried out in the presence of MLM (final protein concentration: 1 mg/mL) following published procedures. MLM were also employed in phase II glucuronidation assays employing UDPGA as activating co-factor.
(§3) S.1 In vitro phase I liver metabolism in MLM
(§4) In phase I metabolic stability assays, samples were prepared in 100 mM phosphate buffered saline (PBS), pH 7.4, containing a NADPH-generating system (5 mM MgCl2, 10 mM glucose-6-phosphate, 2 mM NADP+, 1.5 U/mL of glucose-6-phosphate dehydrogenase) and 1 mg/mL mouse liver […]
solutions in DMSO were added to start the reaction. Final DMSO percentage in samples was kept at 1%. At fixed time points (t = 0, 15, 30, 45, 60 min), single aliquots of reaction mixture were withdrawn, processed with two vol. of ACN containing 100 nM UniPR126, centrifuged (16000 g, 10 min, 4 °C) and the supernatant was directly injected in the HPLC-ESI-MS/MS system. […]
as §2

Series [8] in a line: In vivo pharmacokinetics in mice after single oral dose, plasma levels by HPLC-MS/MS. The note with it: 30 mg/kg p.o.; for AUC(0-t): non-compartmental analysis. As to the method:
Male mice (breed: C57BL/6J) were supplied by Charles River Labs, Milan, Italy. Mice were submitted to 12 h light-dark cycles under standard temperature and humidity conditions, with free access to water and chow. All experimental procedures were carried out following the European Community Council Directive 2010/63/UE, Italian regulations (DL 26/2014), and the ethical committee guidelines for animal research. […] Blood aliquots were withdrawn by tail puncture into heparinized tubes, centrifuged to collect plasma (2000× g, 10 min, 4 °C), and stored at −80 °C until analysis by HPLC-ESI-MS/MS. Details on the employed bioanalytical method and HPLC-ESI-MS/MS analytical conditions are given in Section S.4 of the Supplementary Material.
Microsoft Excel 365 (Microsoft Corp., Redmond, WA, USA) was employed for data analysis. GraphPad Prism v. 6.01 (GraphPad Software Inc., La Jolla, CA, USA) was employed for plotting graphs. The freeware software PCModFit V.6.7 (Add-on for Microsoft Excel) was employed for AUC calculations by non-compartmental analysis (NCA). […]
Calibration standards (CS, concentration range: 1000-2 nmol/L) were prepared by spiking blank […]
= 1%). Specificity of the method was checked comparing HPLC-MS/MS chromatograms of blank […]
Within-run accuracy and precision were checked employing QC samples representative of the whole calibration range (HQC = 800 nmol/l; MQC = 400 nmol/l; LQC = 5 nmol/l) with n = 3 replicates at each QC concentration level. Between-run accuracy and precision were checked employing QC samples at n=3 concentration levels in n = 3 analytical runs over three days. The acceptance criteria for accuracy were to get back-calculated concentrations ± 15% of the nominal ones, except for the LLOQ, which had to be ± 20%. The acceptance criteria for precision, expressed as relative standard

A short description of series [9]: Phase II sulfonation stability in mouse liver S9 fraction (+PAPS). It is filed as in vitro ADME. The following applies: mouse liver S9, 1 μM. As to the method: as §1, §3, §4
solutions in DMSO were added to start the reaction. Final DMSO percentage in samples was kept at 1%. […]
as §2

The conditions of series [10]: cited from earlier work. The source holds these as a separate data set.
For a further series, the target named is EphA2-Fc (Mus musculus, UniProt Q03145). Kind of series: Surface plasmon resonance (SPR) binding to sensorchip-immobilized EphA2-Fc. As to the method:
SPR measurements were performed on a BIAcore X100 instrument (GE-Healthcare, Milwaukee, WI, USA), using research-grade CM4 carboxyl-methyl-dextran-coated sensorchips (GE-Healthcare). SPR was exploited to measure changes in refractive index caused by the binding of UniPR500 to surface-immobilized EphA2. […] Binding parameters were calculated by the non-linear curve fitting software package BIA evaluation 3.2 using a single site model with correction for mass transfer. The dissociation constant (Kd) was either derived from the dissociation rate (koff)/association rate (kon) ratio (kinetics) or by steady-state analysis (being fitted with the proper form of Scatchard’s equation for the plot of the bound RU at equilibrium vs. the ligand concentration in solution).
In general terms: Surface plasmon resonance follows binding to a sensor surface in real time, without labels.

Series [11] is described as follows: Lipophilicity, distribution coefficient n-octanol/buffer pH 7.4. It is filed as physicochemical.
Details of series [12]: method as in PMID 31891876, PMID 32927068. The following applies: reference substrates; cited from earlier work.
The mark [13] stands for this setting: male, C57BL/6J, mouse, plasma, po.

Converted amounts (≈) assume the structure as drawn. “And” between values parts separate entries of the source, which are not always exact repeats. Identical values can stand only once. Like-named read-outs stand apart in the source and are kept apart here.

Sequence of EphA2-Fc (Q03145 26-538): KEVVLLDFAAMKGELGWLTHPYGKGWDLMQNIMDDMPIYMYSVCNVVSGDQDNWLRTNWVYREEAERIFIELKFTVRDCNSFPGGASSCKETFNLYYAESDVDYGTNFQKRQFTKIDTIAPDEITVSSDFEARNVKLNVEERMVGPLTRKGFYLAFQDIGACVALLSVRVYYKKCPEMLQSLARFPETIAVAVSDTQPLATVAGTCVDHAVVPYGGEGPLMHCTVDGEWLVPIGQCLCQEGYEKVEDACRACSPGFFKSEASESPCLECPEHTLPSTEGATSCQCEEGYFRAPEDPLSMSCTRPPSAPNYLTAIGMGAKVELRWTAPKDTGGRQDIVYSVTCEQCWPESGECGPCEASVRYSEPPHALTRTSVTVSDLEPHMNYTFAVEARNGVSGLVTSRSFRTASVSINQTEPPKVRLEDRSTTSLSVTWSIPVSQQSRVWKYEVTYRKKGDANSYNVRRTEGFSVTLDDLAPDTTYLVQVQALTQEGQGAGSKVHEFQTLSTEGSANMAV

Turning to `C[C@H](CCC(=O)N[C@H](CC(=O)O)Cc1c[nH]c2ccccc12)[C@H]1CC[C@H]2[C@@H]3CC[C@@H]4C[C@H](O)CC[C@]4(C)[C@H]3CC[C@]12C` [UniPR129, N-(3α-hydroxy-5β-cholan-24-oyl)-L-β-homotryptophan], the half-life at 1 µM was 61.1 ± 4.3 min in [1] and 16.8 min in [5] (mouse, liver microsomes, 1 μM). For the same molecule, the “percentage recovered in mouse plasma” value in series [2] was 98.3 ± 9.5%. Besides, the “plasma levels after oral administration” value in series [3] (30 mg/kg oral dose) is reported as “low nanomolar range”. Further, the time of peak concentration (Tmax) (commonly the time from dosing to the highest level) in [3] (30 mg/kg p.o.) is 60 min. For the same molecule, in series [3] (30 mg/kg p.o., read-out: Cmax in plasma), the Cmax was 13.6 ± 1.2 nM. For the same molecule, in series [4], the “plasma protein binding (%bound)” value is 98%. Besides, the “change in concentration in the absence of the NADPH-generating system” value in series [5] (MLM control without NADPH-generating system) was “No decrease”. Also, the “in vitro half-life (t1/2), phase I metabolism” value in series [5] (MLM, 1 μM) stood at 17 min. For the same molecule, the “classification of in vitro phase I intrinsic clearance” value in [5] (classification bands of ref 19) is “high clearance compound”. The microsomal CLint at 1 µM in [5] (mouse, liver microsomes, pH 7.4, MLM, 1 μM, estimate from t1/2, read-out: phase I intrinsic clearance (CL'int)) was 41.4 µL/min/mg. For the same molecule, the results for the “Log Doct,7.4” value in series [6] and in series [6] (evaluated in a previous paper) were 4.90 ± 0.15 and 4.90, respectively. Moreover, in series [7], the “percentage of intact compound at t = 60 min, glucuronidation” value was determined as 85.7 ± 2.7%. Moreover, the exposure AUC(0-t) (commonly exposure summed from dosing to a finite time, without extrapolation to infinity) in series [8] (setting [13]) is 0.0406 µM·h. Further, the “percentage remaining at t = 60 min, sulfonation” value in [9] was 86.2 ± 5.3%. In addition, the kinetic solubility in series [10] (PBS buffer pH 7.4) is 18.3 ± 2.4 µg/mL (≈ 31.7 µM); in [10] (previously measured), 18 µg/mL (≈ 31.2 µM).
For the molecule `C[C@H](CCC(=O)N[C@H](CC(=O)O)Cc1c[nH]c2ccccc12)[C@H]1CC[C@H]2[C@@H]3CCC4CC(=NO)CC[C@]4(C)[C@H]3CC[C@]12C` (stereo partly drawn) [UniPR500, N-(3-hydroxyimino-cholan-24-oyl)-L-β-homotryptophan], the half-life at 1 µM in [1] amounted to 58.6 ± 6.1 min. In addition, the “in vitro half-life (t1/2), phase I metabolism” value in [5] (MLM, 1 μM) worked out at 60 min. In series [5] (mouse, liver microsomes, 1 μM), the half-life at 1 µM was 60.4 min. Also, the “Log Doct,7.4” value in series [6] (evaluated in a previous paper) is 4.23 ± 0.11 and 4.23. The “percentage of intact compound at t = 60 min, glucuronidation” value in series [7] is reported as 79.5 ± 2.9%. The “concentration at which saturation binding is reached” value at EphA2-Fc is given as “around 25 μM”. The “fold increase of AUC (0–6 h) with respect to UniPR129” value in series [8] was found to be 43 fold. For the same molecule, in series [8] (setting [13]), the Tmax is 30 min and the area under the curve AUC(0-t) is 1.75 µM·h. In addition, the Cmax in series [8] (male, C57BL/6J, mouse, plasma, po, mean ± S.E.M., n = 4, read-out: maximal plasma concentration (Cmax)) was found to be 609 ± 102 nM. The concentration at 1 h in series [8] (male, C57BL/6J, mouse, plasma, po, mean ± S.E.M., read-out: plasma concentration at 1 h post-dose) came out at 344 ± 29 nM. Also, the concentration at 6 h in [8] (male, C57BL/6J, mouse, plasma, po, mean ± S.E.M., read-out: plasma concentration at 6 h post-dose) came out at 237 ± 24 nM. Besides, in series [11], the “decrease of Log Doct,7.4 with respect to UniPR129” value was “approximately 0.7 log unit”. The “percentage remaining at t = 60 min, sulfonation” value in series [9] amounted to 81.0 ± 4.0%. For the same molecule, the kinetic solubility in [10] (previously measured) is 30.6 ± 2.6 µg/mL and 30 µg/mL.
With `O=C(O)Cc1ccccc1Nc1c(Cl)cccc1Cl` [diclofenac], in series [12], the “t1/2 of known phase I CYP substrates” value was ~6 min.
